In general, TGI refers to the concentration giving total growth inhibition. As a reminder, the GI50 is the concentration that inhibits growth by half.

Some test systems named below: 786-0 renal; A498 renal; DLD-1 colon; KM20L2 colon; LXFL 529 NSCLC; SF-268 CNS; SNB-19 CNS; COLO 205 colon; DMS 273 small cell lung; BT-549 breast; DU-145 prostate; MCF7 breast.
What all share (experiment): DTP human tumour cell line panel, 48 h

The structures appear in SMILES notation. Values joined by “and” are separate entries in the source; they are usually repeats but may differ in a detail not shown here. Equal values may be shown once.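 These data come from cells grown in 96-well plates and exposed to compound for 48 hours at five concentrations. Here, GI50 denotes the concentration required for 50% inhibition of growth. The concentration for full growth arrest is given as TGI.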

For the molecule `Cc1cc(NS(=O)(=O)c2ccc(NC(=O)c3ccc(Cl)c4c(Nc5ccc(S(=O)(=O)N=C(N)N)cc5)c5ccccc5nc34)cc2)no1`, the TGI in the test with 786-0 renal, in the test with A498 renal, in the test with DLD-1 colon, in the test with KM20L2 colon, with LXFL 529 NSCLC and in the test on SF-268 CNS was > 100 µM each time. The TGI in the test on SNB-19 CNS was > 100 µM.

For the molecule `O=C1C2C=CC(C2)C(c2ccc(O)cc2)N1O` (stereo not given), the TGI in the test on 786-0 renal, in the test on A498 renal, in the test on COLO 205 colon, with DLD-1 colon, in the test with KM20L2 colon and with LXFL 529 NSCLC was > 100 µM each time. Further, the TGI with SF-268 CNS and in the test with SNB-19 CNS was > 100 µM each time.

For the molecule `COC(=O)NN=C1C(C)(C)C(=O)C1(C)C`, the TGI with 786-0 renal, in the test with A498 renal, in the test with COLO 205 colon, in the test on DLD-1 colon, in the test on DMS 273 small cell lung and with KM20L2 colon was > 100 µM in each case. For the same molecule, the TGI in the test on LXFL 529 NSCLC and in the test with SF-268 CNS was > 100 µM each time.

For the molecule `O=C(O)CCSC(=O)Nc1ccccc1F`, the TGI in the test with 786-0 renal, in the test with A498 renal, in the test with COLO 205 colon, with DMS 273 small cell lung, with KM20L2 colon and in the test on LXFL 529 NSCLC was > 100 µM in each case. Besides, the TGI in the test on SF-268 CNS and in the test with SNB-19 CNS was > 100 µM throughout.

Regarding `Cc1ccc(NC(=O)C(=O)CC(=O)c2c(C)n([O-])c3ccccc3[n+]2=O)cc1`, the TGI in the test on 786-0 renal was > 100 µM; in the test with A498 renal, > 100 µM; in the test on COLO 205 colon, 55.2 µM; with DMS 273 small cell lung, 59.6 µM; in the test on KM20L2 colon it was 71.8 µM; with LXFL 529 NSCLC, > 100 µM. In addition, the TGI was 96.2 µM with SF-268 CNS and > 100 µM in the test on SNB-19 CNS.

Regarding `CCOC(=O)/C(=C\c1cccs1)P(=O)(OCC)OCC`, the TGI is 47.2 µM in the test with 786-0 renal; 30.4 µM in the test with COLO 205 colon; 60.6 µM with DLD-1 colon; > 100 µM in the test on DMS 273 small cell lung; 49.7 µM in the test with KM20L2 colon; 41.4 µM in the test on LXFL 529 NSCLC. The TGI with SF-268 CNS is 60.4 µM; in the test on SNB-19 CNS it was > 100 µM.

Consider `CN1CC[C@]2(C)c3cc(O)ccc3CC3CCCC1C32C` (stereo not given in full), for which the TGI with 786-0 renal, in the test with A498 renal, with COLO 205 colon, in the test on DLD-1 colon, in the test with KM20L2 colon and with LXFL 529 NSCLC was > 100 µM in each case. Further, the TGI in the test with SF-268 CNS and in the test with SNB-19 CNS was > 100 µM in each case.

With `COc1ccccc1C1c2cc3c(cc2OC(O)(CO)C1C(=O)O)OCO3` (stereo not given) (tested in a mixture with another compound), the TGI in the test on 786-0 renal, with A498 renal, in the test on COLO 205 colon, in the test on DLD-1 colon, in the test on DMS 273 small cell lung and in the test with KM20L2 colon was > 100 µM throughout. Besides, the TGI with LXFL 529 NSCLC and in the test on SF-268 CNS was > 100 µM in each case.

Take `C[C@]12CCC(=O)C(O)=C1CC[C@@H]1C2CC[C@]2(C)Nc3c(cnn3-c3ccccc3)CC12` (stereo not given in full): the TGI in the test on 786-0 renal, with A498 renal, with DLD-1 colon, with DMS 273 small cell lung, in the test with KM20L2 colon and with LXFL 529 NSCLC was > 100 µM in each case.

Consider `O=C1C2C(c3ccccc3)NC(c3ccccc3)C1C(c1ccccc1)NC2c1ccccc1` (stereo not given), for which the TGI in the test with 786-0 renal, in the test on A498 renal, in the test with BT-549 breast, in the test with COLO 205 colon, in the test with DU-145 prostate and in the test on MCF7 breast was > 100 µM in each case. For the same molecule, the TGI with SF-268 CNS and with SNB-19 CNS was > 100 µM in each case.

For the molecule `COc1cccc(OCCCN)c1-c1cc(Nc2cnc(C#N)cn2)n[nH]1`, the GI50 in the test with 786-0 renal was 3.28 nM; in the test on A498 renal, 4.76 nM; in the test on BT-549 breast it was 79.7 nM and 85.6 nM; with COLO 205 colon, 41.9 nM and 67.7 nM; in the test with DU-145 prostate, 7.69 nM and 13.1 nM; with MCF7 breast, 3.04 nM. Besides, the concentration for 50% growth inhibition (GI50) in the test with SF-268 CNS was 87.1 nM and 75.4 nM; in the test with SNB-19 CNS, 18.8 nM and 25.6 nM. For the same molecule, the total growth inhibition concentration (TGI) was 0.706 µM in the test with 786-0 renal; 0.23 µM and < 0.0269 µM in the test on A498 renal; 8.2 µM in the test with BT-549 breast; 11.2 µM in the test with COLO 205 colon; 15.4 µM in the test with DU-145 prostate; 18.2 µM with MCF7 breast. Also, the TGI in the test with SF-268 CNS came out at 13.2 µM; with SNB-19 CNS, 19.5 µM.

Consider `COc1ccc(C(=O)/C=C/c2ccc3c(c2)OCO3)c(OCc2ccccc2)c1`, for which the TGI in the test with 786-0 renal, with A498 renal, in the test on BT-549 breast, with COLO 205 colon, in the test on DU-145 prostate and with MCF7 breast was > 100 µM each time. The TGI in the test with SF-268 CNS and in the test with SNB-19 CNS was > 100 µM in each case.

As to `O=C(O)C1C(C(=O)O)C23CC2(C(=O)O)C2(C(=O)O)CCC3=C3CCCC312` (stereo not given), the TGI in the test with 786-0 renal is > 100 µM; in the test on A498 renal it was 62.6 µM; in the test with BT-549 breast, 69.9 µM; with COLO 205 colon it was 16.8 µM; in the test with DU-145 prostate, 34.1 µM; in the test on MCF7 breast, 63.3 µM. In addition, the TGI with SF-268 CNS came out at 22.5 µM; in the test with SNB-19 CNS, 73.6 µM.

As for `CCC[CH2][Sn]([CH2]CCC)([CH2]CCC)[O]C(=O)c1ccc(Cl)cc1Cl`, the GI50 is 130 nM with 786-0 renal; 110 nM in the test on A498 renal; 119 nM in the test with BT-549 breast; 183 nM in the test on COLO 205 colon; 128 nM in the test with DU-145 prostate; 137 nM in the test on MCF7 breast. The GI50 with SF-268 CNS was 134 nM; with SNB-19 CNS, 179 nM. Further, the TGI in the test on 786-0 renal stood at 0.259 µM; in the test on A498 renal, 0.236 µM; in the test with BT-549 breast it was 0.251 µM; in the test with COLO 205 colon it was 0.375 µM; with DU-145 prostate, 0.257 µM; in the test with MCF7 breast, 0.278 µM. The TGI in the test on SF-268 CNS was 0.283 µM; with SNB-19 CNS it was 0.359 µM.
